Literature values in patent US20210137911A1, “NOVEL CHRONOTHERAPY BASED ON CIRCADIAN RHYTHMS” (THE TRUSTEES OF THE UNIVERSITY OF PENNSYLVANIA, priority 2014, published 2021).

Details: half-life of therapeutic compound as listed in Table 1; cited from earlier work

Row | Compound | ½ Life
1 | Cc1c(OCC(F)(F)F)ccnc1C[S+]([O-])c1nc2ccccc2[nH]1 (centres unmarked) [Lansoprazole] | 1.5 h
2 | CC(C)OC(=O)CCC/C=C\C[C@@H]1[C@@H](CC[C@@H](O)CCc2ccccc2)[C@H](O)C[C@@H]1O [Latanoprost] | 0.283 h
3 | Nc1cccc2c1CN(C1CCC(=O)NC1=O)C2=O (centres unmarked) [Lenalidomide] | 3 h
4 | C=CCN1CC[C@]23CCCC[C@H]2[C@H]1Cc1ccc(O)cc13 [Levallorphan] | 1 h
5 | c1ccc([C@H]2CN3CCSC3=N2)cc1 [Levamisole] | 4.4 h
6 | C[C@@H]1CC(=O)NN=C1c1ccc(NN=C(C#N)C#N)cc1 [Levosimendan] | 1 h
7 | CN1C(C(=O)Nc2ccccn2)=C(O)c2sc(Cl)cc2S1(=O)=O [Lornoxicam] | 3 h
8 | CCCCc1nc(Cl)c(CO)n1Cc1ccc(-c2ccccc2-c2nn[nH]n2)cc1 [Losartan, reference compound] | 1 h
9 | CC[C@H](C)C(=O)O[C@H]1C[C@@H](C)C=C2C=C[C@H](C)[C@H](CC[C@@H]3C[C@@H](O)CC(=O)O3)[C@H]21 [Lovastatin] | 5.3 h
10 | CN1CCN(C2=Nc3ccccc3Oc3ccc(Cl)cc32)CC1 [Loxapine] | 4 h
11 | COC(=O)Nc1nc2ccc(C(=O)c3ccccc3)cc2[nH]1 [Mebendazole] | 2.5 h
12 | Cc1cccc(Nc2ccccc2C(=O)O)c1C [Mefenamic acid] | 2 h
13 | COc1ccc2[nH]cc(CCNC(C)=O)c2c1 [Melatonin] | 0.5833 h
14 | CN[C@@H](C)Cc1ccccc1 [Methamphetamine] | 4 h
15 | Cn1cc[nH]c1=S [Methimazole] | 5 h
16 | CN1C(=O)CC(C)(c2ccccc2)C1=O (centres unmarked) [Methsuximide] | 1.4 h
17 | C[C@H]1C[C@@H]2[C@H]([C@@H](O)C[C@@]3(C)[C@H]2CC[C@]3(O)C(=O)CO)[C@@]2(C)C=CC(=O)C=C12 [Methylprednisolone] | 1 h
18 | OCCN1C[C@H](O)[C@@H](O)[C@H](O)[C@H]1CO [Miglitol] | 2 h
19 | Cc1[nH]c(=O)c(C#N)cc1-c1ccncc1 [Milrinone] | 2.3 h
20 | COc1cc2c(cc1OC)[C@@H](Cc1cc(OC)c(OC)c(OC)c1)[N+](C)(CCCOC(=O)CC/C=C/CCC(=O)OCCC[N+]1(C)CCc3cc(OC)c(OC)cc3[C@H]1Cc1cc(OC)c(OC)c(OC)c1)CC2 (some centres unmarked) [Mivacurium] | 1.7 h

Row | Compound | ½ Life
21 | O=C(NCCN1CCOCC1)c1ccc(Cl)cc1 [Moclobemide] | 1 h
22 | CCOC(=O)[C@H](CCc1ccccc1)N[C@@H](C)C(=O)N1Cc2cc(OC)c(OC)cc2C[C@H]1C(=O)O [Moexipril] | 1 h
23 | C[C@@H]1C[C@H]2[C@@H]3CCC4=CC(=O)C=C[C@]4(C)[C@@]3(Cl)[C@@H](O)C[C@]2(C)[C@@]1(O)C(=O)CCl [Mometasone] | 5.8 h
24 | CCOC(=O)Nc1ccc2c(c1)N(C(=O)CCN1CCOCC1)c1ccccc1S2 [Moricizine] | 2 h
25 | CCCCCCC(C)(C)c1cc(O)c2c(c1)OC(C)(C)C1CCC(=O)CC21 (centres unmarked) [Nabilone] | 2 h
26 | C=CCN1CC[C@]23c4c5ccc(O)c4O[C@H]2C(=O)CC[C@@]3(O)[C@H]1C5 [Naloxone] | 0.5 h
27 | CNS(=O)(=O)CCc1ccc2[nH]cc(C3CCN(C)CC3)c2c1 [Naratriptan] | 5 h
28 | CC(C)[C@H]1CC[C@H](C(=O)N[C@H](Cc2ccccc2)C(=O)O)CC1 [Nateglinide] | 1.5 h
29 | CCc1nn(CCCN2CCN(c3cccc(Cl)c3)CC2)c(=O)n1CCOc1ccccc1 [Nefazodone] | 2 h
30 | O=C(O)c1cccnc1Nc1cccc(C(F)(F)F)c1 [Niflumic Acid] | 2.5 h
31 | COCCOC(=O)C1=C(C)NC(C)=C(C(=O)OC(C)C)C1c1cccc([N+](=O)[O-])c1 (centres unmarked) [Nimodipine] | 1.7 h
32 | CC(=O)Oc1ccccc1C(=O)Nc1ncc([N+](=O)[O-])s1 [Nitazoxanide] | 3.5 h
33 | O=C(O)c1cc(/N=N/c2ccc(O)c(C(=O)O)c2)ccc1O [Olsalazine] | 0.9 h
34 | COc1ccc2[nH]c([S+]([O-])Cc3ncc(C)c(OC)c3C)nc2c1 (centres unmarked) [Omeprazole] | 0.5 h
35 | Cc1nccn1CC1CCc2c(c3ccccc3n2C)C1=O (centres unmarked) [Ondansetron] | 5.7 h
36 | CCCCCCCCCCC[C@@H](C[C@@H]1OC(=O)[C@H]1CCCCCC)OC(=O)[C@H](CC(C)C)NC=O [Orlistat] | 1 h
37 | CCOC(=O)C1=C[C@@H](OC(CC)CC)[C@H](NC(C)=O)[C@@H](N)C1 [Oseltamivir] | 1 h
38 | C[C@]12COC(=O)C[C@@H]1CC[C@@H]1[C@@H]2CC[C@@]2(C)[C@H]1CC[C@]2(C)O [Oxandrolone] | 0.55 h
39 | C=CCOc1ccccc1OCC(O)CNC(C)C (centres unmarked) [Oxprenolol] | 1 h
40 | Cn1c(=O)c2[nH]cnc2n(C)c1=O [Oxtriphylline] | 3 h

Row | Compound | ½ Life
41 | COc1ccc2c3c1O[C@H]1C(=O)CC[C@@]4(O)[C@@H](C2)N(C)CC[C@]314 [Oxycodone] | 4.5 h
42 | CN1CC[C@]23c4c5ccc(O)c4O[C@H]2C(=O)CC[C@@]3(O)[C@H]1C5 [Oxymorphone] | 1.3 h
43 | COc1ccnc(C[S+]([O-])c2nc3ccc(OC(F)F)cc3[nH]2)c1OC (centres unmarked) [Pantoprazole] | 1 h
44 | C[C@H](/C=C/[C@H](C)C(C)(C)O)[C@H]1CC[C@H]2/C(=C/C=C3C[C@@H](O)C[C@H](O)C3)CCC[C@]12C [Paricalcitol] | 4 h
45 | Nc1nc2[nH]cc(CCc3ccc(C(=O)N[C@@H](CCC(=O)O)C(=O)O)cc3)c2c(=O)[nH]1 [Pemetrexed] | 3.5 h
46 | OC[C@H]1O[C@@H](n2cnc3c2NC=NC[C@H]3O)C[C@@H]1O [Pentostatin] | 5.7 h
47 | C1CCC(C(CC2CCCCN2)C2CCCCC2)CC1 (centres unmarked) [Perhexiline] | 2 h
48 | CCC[C@H](N[C@@H](C)C(=O)N1[C@H](C(=O)O)C[C@@H]2CCCC[C@@H]21)C(=O)OCC [Perindopril] | 1.2 h
49 | NNCCc1ccccc1 [Phenelzine] | 1.2 h
50 | O=C1c2ccccc2C(=O)C1c1ccccc1 [Phenindione] | 5 h
51 | CNC[C@H](O)c1cccc(O)c1 [Phenylephrine] | 2.1 h
52 | CC[C@@H]1C(=O)OC[C@@H]1Cc1cncn1C [Pilocarpine] | 0.76 h
53 | CC(C)NCC(O)COc1cccc2[nH]ccc12 (centres unmarked) [Pindolol] | 3 h
54 | CCc1ccc(CCOc2ccc(CC3SC(=O)NC3=O)cc2)nc1 (centres unmarked) [Pioglitazone] | 3 h
55 | Cc1ccc(=O)n(-c2ccccc2)c1 [Pirfenidone] | 2 h
56 | c1cc(CN2CCCNCCNCCCNCC2)ccc1CN1CCCNCCNCCCNCC1 [Plerixafor] | 4.4 h
57 | COc1cc([C@@H]2c3cc4c(cc3[C@H](O)[C@H]3COC(=O)[C@H]23)OCO4)cc(OC)c1OC [Podofilox] | 1 h
58 | C[n+]1ccccc1/C=N/O [Pralidoxime] | 1.233 h

Same assay, conditions: in vivo; cited from earlier work

Row | Compound | ½ Life
59 | CCNC(=O)[C@@H]1CCCN1C(=O)[C@H](CCCNC(=N)N)NC(=O)[C@H](CC(C)C)NC(=O)[C@@H](CC(C)C)NC(=O)[C@H](Cc1ccc(O)cc1)NC(=O)[C@H](CO)NC(=O)[C@H](Cc1c[nH]c2ccccc12)NC(=O)[C@H](Cc1c[nH]cn1)NC(=O)[C@@H]1CCC(=O)N1 [Leuprolide] | 3 h
60 | COC(=O)C(c1ccccc1)C1CCCCN1 (centres unmarked) [Methylphenidate] | 3 h
61 | COc1ccc2cc1Oc1cc3c(cc1OC)CC[N+](C)(C)[C@H]3Cc1ccc(cc1)Oc1c(OC)c(OC)cc3c1[C@@H](C2)[N+](C)(C)CC3 [Metocurine Iodide] | 3 h
62 | Cc1ncc2n1-c1ccc(Cl)cc1C(c1ccccc1F)=NC2 [Midazolam] | 1.8 h
63 | Nc1cc(N2CCCCC2)nc(N)[n+]1[O-] [Minoxidil] | 4.2 h
64 | CC(C)(O)c1ccccc1CC[C@@H](SCC1(CC(=O)O)CC1)c1cccc(/C=C/c2ccc3ccc(Cl)cc3n2)c1 [Montelukast] | 2.7 h
65 | CN1CC[C@]23c4c5ccc(O)c4O[C@H]2[C@@H](O)C=C[C@H]3[C@H]1C5 [Morphine] | 2 h
66 | CC(C)C[C@H](NC(=O)[C@@H](Cc1ccc2ccccc2c1)NC(=O)[C@H](Cc1ccc(O)cc1)NC(=O)[C@H](CO)NC(=O)[C@H](Cc1c[nH]c2ccccc12)NC(=O)[C@H](Cc1c[nH]cn1)NC(=O)[C@@H]1CCC(=O)N1)C(=O)N[C@@H](CCCNC(=N)N)C(=O)N1CCC[C@H]1C(=O)NCC(N)=O [Nafarelin] | 3 h
67 | CS(=O)(=O)Nc1ccc([N+](=O)[O-])cc1Oc1ccccc1 [Nimesulide] | 1.8 h
68 | CC[C@H](C)[C@@H]1NC(=O)[C@H](Cc2ccc(O)cc2)NC(=O)[C@@H](N)CSSC[C@@H](C(=O)N2CCC[C@H]2C(=O)N[C@@H](CC(C)C)C(=O)NCC(N)=O)NC(=O)[C@H](CC(N)=O)NC(=O)[C@H](CCC(N)=O)NC1=O [Oxytocin] | 0.0166 h
69 | CC(=O)O[C@H]1C[C@@H]2CC[C@@H]3[C@H](CC[C@@]4(C)[C@H]3C[C@H]([N+]3(C)CCCCC3)[C@@H]4OC(C)=O)[C@@]2(C)C[C@@H]1[N+]1(C)CCCCC1 [Pancuronium] | 1.5 h
70 | COc1ccc(Cc2nccc3cc(OC)c(OC)cc23)cc1OC [Papaverine] | 0.5 h
71 | CSCC[C@H](NC(=O)[C@H](Cc1c[nH]c2ccccc12)NC(=O)CCNC(=O)OC(C)(C)C)C(=O)N[C@@H](CC(=O)O)C(=O)N[C@@H](Cc1ccccc1)C(N)=O [Pentagastrin] | 0.166 h
72 | CCCC(C)C1(CC)C(=O)NC(=O)NC1=O (centres unmarked) [Pentobarbital] | 5 h
73 | CCOC(=O)C1(c2ccccc2)CCN(C)CC1 [Pethidine] | 1 h
74 | CC(N)C(O)c1ccccc1 (centres unmarked) [Phenylpropanolamine] | 2.1 h
